Measurements published in US20220332708A1 (Cytokinetics, Inc., priority 2021, published 2022).

Tested on: Bovine cardiac myofibrils
Assay: Dose-dependent myofibril ATPase modulation (calcium-buffered, pyruvate kinase and lactate dehydrogenase-coupled ATPase assay at pCa25)
Assay type: biochemical
Conditions: concentration at which ATPase activity was 1.4-fold higher than the bottom of the dose curve, mean of a minimum of two independent tests
Protocol: In Vitro Model of Dose-Dependent Myofibril ATPase Modulation
Dose responses were measured using a calcium-buffered, pyruvate kinase and lactate dehydrogenase-coupled ATPase assay containing the following reagents (concentrations expressed are final assay concentrations): Potassium PIPES (12 mM), MgCl2 (2 mM), ATP (1 mM), DTT (1 mM), BSA (0.1 mg/ml), NADH (0.5 mM), PEP (1.5 mM), pyruvate kinase (4 U/ml), lactate dehydrogenase (8 U/ml), and antifoam (90 ppm). The pH was adjusted to 6.80 at 22° C. by addition of potassium hydroxide. Calcium levels were controlled by a buffering system containing 0.6 mM EGTA and varying concentrations of calcium, to achieve a free calcium concentration of 1×10^−4 M to 1×10^−8 M.
Bovine cardiac myofibrils were obtained by homogenizing the appropriate tissue in the presence of detergent. Such treatment removes membranes and majority of soluble cytoplasmic proteins but leaves intact cardiac sarcomeric acto-myosin apparatus. Concentrations of myofibrils were adjusted to achieve the necessary rate of ATP hydrolysis (typically 0.25-1.0 mg/ml).
Chemical entity dose responses were measured at the calcium concentration corresponding to 25% of maximal ATPase activity (pCa25), so a preliminary experiment was performed to test the response of the ATPase activity to free calcium concentrations in the range of 1×10^−4 M to 1×10^−8 M. Subsequently, the assay mixture was adjusted to the pCa25. Assays were performed by first preparing a dilution series of test chemical entity, each with an assay mixture containing potassium Pipes, MgCl2, BSA, DTT, pyruvate kinase, lactate dehydrogenase, myofibrils, antifoam, EGTA, CaCl2), and water. The assay was started by adding an equal volume of solution containing potassium Pipes, MgCl2, BSA, DTT, ATP, NADH, PEP, antifoam, and water. ATP hydrolysis was monitored by absorbance at 340 nm. The resulting dose response curve was fit by the 4 parameter equation y=Bottom+((Top−Bottom)/(1+((EC50/X)^Hill))). […] AC1.4 values reported in the table below are mean values based on a minimum of two independent tests.

| Compound | AC1.4 |
| --- | --- |
| Cc1[nH]c(S(=O)(=O)N[C@H]2COc3cc(F)c(Cl)cc3C2)cc1C(=O)N1CC(C)(C#N)C1 [Compound 80, (R)-N-(6-chloro-7-fluorochroman-3-yl)-4-(3-cyano-3-methylazetidine-1-carbonyl)-5-methyl-1H-pyrrole-2-sulfonamide] | 13.1993 µM |
| Cc1[nH]c(S(=O)(=O)N[C@@H]2CCc3c([nH]c4ccccc34)C2)cc1C(=O)N1CCCCC1 [Compound 47, (R)-5-methyl-4-(piperidine-1-carbonyl)-N-(2,3,4,9-tetrahydro-1H-carbazol-2-yl)-1H-pyrrole-2-sulfonamide] | 1.9857 µM |
| Cc1[nH]c(S(=O)(=O)N[C@@H]2CCc3c([nH]c4ccccc34)C2)cc1C(=O)N1CC(C)(C)C1 [Compound 40, (R)-4-(3,3-dimethylazetidine-1-carbonyl)-5-methyl-N-(2,3,4,9-tetrahydro-1H-carbazol-2-yl)-1H-pyrrole-2-sulfonamide] | 0.0608 µM |
| Cc1[nH]c(S(=O)(=O)N[C@@H]2CCc3c([nH]c4ccccc34)C2)cc1C(=O)NCCF [Compound 44, (R)-N-(2-fluoroethyl)-2-methyl-5-(N-(2,3,4,9-tetrahydro-1H-carbazol-2-yl)sulfamoyl)-1H-pyrrole-3-carboxamide] | 0.906 µM |
| COc1cc2c(cc1S(=O)(=O)N[C@H]1C[C@H](n3cc(C(F)(F)F)c(C)n3)C1)c(=O)[nH]c(=O)n2C [Compound 62, 7-Methoxy-1-methyl-N-((trans)-3-(3-methyl-4-(trifluoromethyl)-1H-pyrazol-1-yl)cyclobutyl)-2,4-dioxo-1,2,3,4-tetrahydroquinazoline-6-sulfonamide] | 0.8691 µM |
| CNc1cc2nc(C)[nH]c(=O)c2cc1S(=O)(=O)NCCc1cc2ccccc2[nH]1 [Compound 34] | 13.2484 µM |
| CNC(=O)c1cc(S(=O)(=O)NC2CCc3c([nH]c4ccccc34)C2)[nH]c1C (stereo not drawn) [Compound 35, N,2-dimethyl-5-(N-(2,3,4,9-tetrahydro-1H-carbazol-2-yl)sulfamoyl)-1H-pyrrole-3-carboxamide] | 6.2537 µM |
| Cc1[nH]c(S(=O)(=O)N[C@@H]2Cc3cc(F)c(Cl)cc3[C@H]2O)cc1C(=O)N1CC(C)(C#N)C1 [Compound 89] | 0.2521 µM |
| Cc1[nH]c(S(=O)(=O)N[C@]2(Cc3ccc(Cl)cc3)CCOC2)cc1C(=O)N1CC(F)(F)C1 [Compound 64, (R)-N-(3-(4-chlorobenzyl)tetrahydrofuran-3-yl)-4-(3,3-difluoroazetidine-1-carbonyl)-5-methyl-1H-pyrrole-2-sulfonamide] | 0.3886 µM |
| COCCNC(=O)c1cc(S(=O)(=O)NC2CCc3c([nH]c4ccccc34)C2)[nH]c1C (stereo not drawn) [Compound 37, N-(2-methoxyethyl)-2-methyl-5-(N-(2,3,4,9-tetrahydro-1H-carbazol-2-yl)sulfamoyl)-1H-pyrrole-3-carboxamide] | 2.9421 µM |
| Cc1[nH]c(S(=O)(=O)N[C@@H]2CCc3c([nH]c4ccccc34)C2)cc1C(=O)N1CC(F)(F)C1 [Compound 42, (R)-4-(3,3-difluoroazetidine-1-carbonyl)-5-methyl-N-(2,3,4,9-tetrahydro-1H-carbazol-2-yl)-1H-pyrrole-2-sulfonamide] | 0.06395 µM |
| Cc1[nH]c(S(=O)(=O)N[C@@H]2CCc3cc(Cl)ccc3C2)cc1C(=O)N1CC(C)(C#N)C1 [Compound 67, (R)-N-(6-chloro-1,2,3,4-tetrahydronaphthalen-2-yl)-4-(3-cyano-3-methylazetidine-1-carbonyl)-5-methyl-1H-pyrrole-2-sulfonamide] | 0.05605 µM |
| Cc1[nH]c(S(=O)(=O)N[C@@H]2Cc3ccc(C(F)(F)F)cc3C2)cc1C(=O)N1CC(C)(C#N)C1 (single isomer, unassigned) [Compound 76] | 0.1121 µM |
| CNc1cc2c(cc1S(=O)(=O)NCCc1cc3ccccc3[nH]1)c(=O)[nH]c(=O)n2C [Compound 21] | 4.8236 µM |
| Cc1[nH]c(S(=O)(=O)N[C@@H]2CCc3c([nH]c4ccccc34)C2)cc1C(=O)NCC(F)(F)F [Compound 45, (R)-2-methyl-5-(N-(2,3,4,9-tetrahydro-1H-carbazol-2-yl)sulfamoyl)-N-(2,2,2-trifluoroethyl)-1H-pyrrole-3-carboxamide] | 0.4627 µM |

The remaining lines, values ahead:

| AC1.4 | Compound |
| --- | --- |
| 14.3998 µM | CNc1ccc(S(=O)(=O)Nc2ccc(N3C[C@H](C)C[C@@H](C)C3)nc2)cc1C#N (racemic) [Compound 1, 3-Cyano-N-(6-(trans-3,5-dimethylpiperidin-1-yl)pyridin-3-yl)-4-(methylamino) benzenesulfonamide] |
| 5.8178 µM | CNc1cc2nc(C)[nH]c(=O)c2cc1S(=O)(=O)N[C@H]1CCc2c([nH]c3ccccc23)C1 [Compound 32, (S)-2-Methyl-7-(methylamino)-4-oxo-N-(2,3,4,9-tetrahydro-1H-carbazol-2-yl)-3,4-dihydroquinazoline-6-sulfonamide] |
| 0.2006 µM | CNc1cc2c(cc1S(=O)(=O)N[C@H]1C[C@@H](Nc3cccc(F)c3)C1)c(=O)[nH]c(=O)n2C [Compound 14, N-((cis)-3-((3-fluorophenyl)amino)cyclobutyl)-1-methyl-7-(methylamino)-2,4-dioxo-1,2,3,4-tetrahydroquinazoline-6-sulfonamide] |
| 5.252 µM | CNc1cc2nc(C)[nH]c(=O)c2cc1S(=O)(=O)NC1CCN(c2cccc(F)c2)CC1 [Compound 11, N-(1-(3-fluorophenyl)piperidin-4-yl)-2-methyl-7-(methylamino)-4-oxo-3,4-dihydroquinazoline-6-sulfonamide] |
| 0.5466 µM | Cc1[nH]c(S(=O)(=O)N[C@H]2C[C@H](c3cccc(Cl)c3)C2)cc1C(=O)N1CC(C)(C#N)C1 [Compound 50, N-((trans)-3-(3-chlorophenyl)cyclobutyl)-4-(3-cyano-3-methylazetidine-1-carbonyl)-5-methyl-1H-pyrrole-2-sulfonamide] |
| 1.019 µM | CNc1cc2nc(C)[nH]c(=O)c2cc1S(=O)(=O)N[C@H]1C[C@@H](Nc2cccc(F)c2)C1 [Compound 15, N-((cis)-3-((3-fluorophenyl)amino)cyclobutyl)-2-methyl-7-(methylamino)-4-oxo-3,4-dihydroquinazoline-6-sulfonamide] |
| 0.0762 µM | CNc1cc2nc(C)[nH]c(=O)c2cc1S(=O)(=O)N[C@@H]1CCc2c([nH]c3ccccc23)C1 (single isomer, unassigned) [Compound 33] |
| 3.9537 µM | CNc1cc2c(cc1S(=O)(=O)NC1CC(c3ccccc3)C1)c(=O)[nH]c(=O)n2C (stereo not drawn) [Compound 20, 1-Methyl-7-(methylamino)-2,4-dioxo-N-(3-phenylcyclobutyl)-1,2,3,4-tetrahydroquinazoline-6-sulfonamide] |
| 0.8572 µM | Cc1[nH]c(S(=O)(=O)N[C@H]2C[C@H](c3cc(C(F)(F)F)ccn3)C2)cc1C(=O)N1CC(C#N)C1 [Compound 57, 4-(3-Cyanoazetidine-1-carbonyl)-5-methyl-N-((trans)-3-(4-(trifluoromethyl)pyridin-2-yl)cyclobutyl)-1H-pyrrole-2-sulfonamide] |
| 9.783 µM | CNc1cc2c(cc1S(=O)(=O)NCCCNc1ccccc1)c(=O)[nH]c(=O)n2C [Compound 13, 1-Methyl-7-(methylamino)-2,4-dioxo-N-(3-(phenylamino)propyl)-1,2,3,4-tetrahydroquinazoline-6-sulfonamide] |
| 5.6964 µM | CNc1cc2nc(C)[nH]c(=O)c2cc1S(=O)(=O)NC1CC(c2cccc(F)c2)C1 (stereo not drawn) [Compound 24, N-(3-(3-fluorophenyl)cyclobutyl)-2-methyl-7-(methylamino)-4-oxo-3,4-dihydroquinazoline-6-sulfonamide] |
| 2.8889 µM | Cc1[nH]c(S(=O)(=O)N[C@H]2C[C@H](c3cccc(F)c3)C2)cc1C(=O)N1CC(C)(C#N)C1 [Compound 51, 4-(3-Cyano-3-methylazetidine-1-carbonyl)-N-((trans)-3-(3-fluorophenyl)cyclobutyl)-5-methyl-1H-pyrrole-2-sulfonamide] |
| 1.417 µM | Cc1cc(S(=O)(=O)N[C@@H]2COc3cc(F)c(Cl)cc3[C@@H]2O)cc(N2CC[C@@H](C#N)C2)n1 [Compound 91, N-((3R,4S)-6-chloro-7-fluoro-4-hydroxychroman-3-yl)-2-((R)-3-cyanopyrrolidin-1-yl)-6-methylpyridine-4-sulfonamide] |
| 0.2504 µM | CNc1cc2nc(C)[nH]c(=O)c2cc1S(=O)(=O)NC1CCc2c([nH]c3ccccc23)C1 (stereo not drawn) [Compound 28, 2-Methyl-7-(methylamino)-4-oxo-N-(2,3,4,9-tetrahydro-1H-carbazol-2-yl)-3,4-dihydroquinazoline-6-sulfonamide] |
| 0.5684 µM | Cc1[nH]c(S(=O)(=O)N[C@@H]2COc3ccc(Cl)cc3[C@@H]2O)cc1C(=O)N1CC(C#N)C1 [Compound 74, N-((3R,4S)-6-chloro-4-hydroxychroman-3-yl)-4-(3-cyanoazetidine-1-carbonyl)-5-methyl-1H-pyrrole-2-sulfonamide] |
